What all share (assay type): cell-based
The target of assay [1] is T1, F876L mutant Androgen Receptor (AR-F876L) (Homo sapiens, UniProt P10275, F877L).
T1 construct: expressed in transfected cells; host or cells: LNCaP (LNCaP F876L)
T1 sequence (P10275 1-920 F877L): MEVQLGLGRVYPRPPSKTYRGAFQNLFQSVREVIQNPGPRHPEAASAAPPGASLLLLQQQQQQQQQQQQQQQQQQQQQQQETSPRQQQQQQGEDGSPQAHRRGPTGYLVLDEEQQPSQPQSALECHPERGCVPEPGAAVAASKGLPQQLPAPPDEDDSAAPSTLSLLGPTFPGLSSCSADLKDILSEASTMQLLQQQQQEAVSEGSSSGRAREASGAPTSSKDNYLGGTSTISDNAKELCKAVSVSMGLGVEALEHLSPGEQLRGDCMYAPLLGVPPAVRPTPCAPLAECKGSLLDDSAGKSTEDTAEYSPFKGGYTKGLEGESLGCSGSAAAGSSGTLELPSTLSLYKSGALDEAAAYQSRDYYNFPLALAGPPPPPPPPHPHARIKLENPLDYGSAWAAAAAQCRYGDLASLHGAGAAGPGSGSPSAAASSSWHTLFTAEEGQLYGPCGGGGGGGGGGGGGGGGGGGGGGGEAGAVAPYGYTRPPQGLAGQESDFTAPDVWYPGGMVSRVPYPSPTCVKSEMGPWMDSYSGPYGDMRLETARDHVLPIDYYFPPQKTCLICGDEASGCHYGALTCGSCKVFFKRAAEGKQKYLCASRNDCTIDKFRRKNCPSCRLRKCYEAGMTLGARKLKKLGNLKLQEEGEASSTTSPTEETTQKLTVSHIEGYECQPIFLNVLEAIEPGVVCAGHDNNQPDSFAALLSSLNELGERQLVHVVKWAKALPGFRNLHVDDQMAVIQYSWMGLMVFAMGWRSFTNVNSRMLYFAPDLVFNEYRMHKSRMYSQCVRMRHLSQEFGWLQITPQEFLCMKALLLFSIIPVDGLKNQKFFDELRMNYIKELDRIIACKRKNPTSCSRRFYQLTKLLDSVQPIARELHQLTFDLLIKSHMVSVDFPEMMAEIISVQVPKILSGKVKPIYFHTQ
As to the kind of experiment: LNCaP-AR-F876L ANT reporter assay (ARE firefly luciferase, antagonist mode). The conditions noted are these: for Emax: read-out: LNCaP-AR-F876L ANT MAX % Inh; for IC50: read-out: LNCaP-AR-F876L ANT pIC50 (converted). Put shortly:
(§1)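 Read-out is luciferase luminescence taken 1 h after Steady-Glo addition, following 20-24 h compound exposure at 37 °C in LNCaP pools stably carrying wild-type or F876L AR. Cells were grown in charcoal-stripped serum. Antagonist wells received agonist at 400 pM (WT) or 600 pM (F876L).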
Background: A reporter such as luciferase makes a cellular process visible.

For assay [2], the target named is T2, wild-type Androgen Receptor (AR-wt) (Homo sapiens, UniProt P10275).
T2 construct: expressed in transfected cells; host or cells: LNCaP (LNCaP AR (cs))
T2 sequence (P10275 1-920): T1 sequence (P10275 1-920 F877L) with L877F
As to the kind of experiment: LNCaP-AR-wt AG reporter assay (ARE firefly luciferase, agonist mode). The conditions noted are these: for Emax: read-out: LNCaP-AR-wt AG MAX % Stim. The gist of the method:
(§2)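 LNCaP cells stably expressing wild-type or F876L AR (puromycin-selected pooled populations) were cultured in charcoal-stripped serum medium. In antagonist mode, agonist challenge was 400 pM for wild-type and 600 pM for F876L.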

The target in assay [3] is T1, F876L mutant Androgen Receptor (AR-F876L). As to the kind of experiment: LNCaP-AR-F876L AG reporter assay (ARE firefly luciferase, agonist mode). The settings on record: for Emax: read-out: LNCaP-AR-F876L AG MAX % Stim. The gist of the method: as §2
Assay [4] concerns the target T2, wild-type Androgen Receptor (AR-wt). The experiment in a line: LNCaP-AR-wt ANT reporter assay (ARE firefly luciferase, antagonist mode). The conditions noted are these: for IC50: antagonist mode, 400 pM R-1881 challenge, −Log10(IC50 [Molar]), read-out: LNCaP-AR-wt ANT pIC50 (converted); for Emax: read-out: LNCaP-AR-wt ANT MAX % Inh. The gist of the method:
as §1

Where [5] appears, read: maximum % inhibition of R1881 control response over tested concentration range.
Where [6] appears, read: agonist mode, −Log10(EC50 [Molar]), read-out: LNCaP-AR-wt AG pEC50 (converted).
[7] abbreviates: maximum % stimulation (agonist response) over tested concentration range.
The mark [8] stands for this setting: agonist mode, −Log10(EC50 [Molar]), read-out: LNCaP-AR-F876L AG pEC50 (converted).

Changes are numbered by the printed parent chain. Where two headings read alike, the source gives them in different places.

`N#Cc1ccc(N2C(=S)N(c3cnc(C#N)c(C(F)(F)F)c3)C(=O)C23CCC3)cc1` [Cpd 120, 5-[8-(4-cyanophenyl)-5-oxo-7-thioxo-6,8-diazaspiro[3.4]octan-6-yl]-3-(trifluoromethyl)pyridine-2-carbonitrile]: the Emax was found to be 98.8% in assay [1] (setting [5]), 1.2% in assay [2] (setting [7]), 3.9% in assay [3] (setting [7]) and 100% in assay [4] (setting [5]). In addition, the IC50 in assay [1] was 224 nM; in assay [4] it was 363 nM. Further, the EC50 in assay [2] (setting [6]) and in assay [3] (setting [8]) was above 15100 nM each time.
With `N#Cc1ncc(N2C(=O)C3(CCC3)N(c3ccc(Oc4ccccc4)cc3)C2=S)cc1C(F)(F)F` [Cpd 99, 5-[5-oxo-8-(4-phenoxyphenyl)-7-thioxo-6,8-diazaspiro[3.4]octan-6-yl]-3-(trifluoromethyl)pyridine-2-carbonitrile], the Emax was 85.9% in assay [1] (setting [5]), 1.6% in assay [2], 1.6% in assay [3] and 97.2% in assay [4] (setting [5]). For the same molecule, the IC50 in assay [1] was 389 nM; in assay [4], 417 nM. Besides, the EC50 in assay [2] (setting [6]) and in assay [3] (setting [8]) was above 15100 nM in each case.
On to `N#Cc1ncc(N2C(=O)C3(CCC3)N(c3ccccc3)C2=S)cc1C(F)(F)F` [Cpd 70, 5-(5-oxo-8-phenyl-7-thioxo-6,8-diazaspiro[3.4]octan-6-yl)-3-(trifluoromethyl)pyridine-2-carbonitrile], for which the Emax turned out to be 99.5% in assay [1], 0.3% in assay [2], 0.9% in assay [3] and 99.2% in assay [4]. For the same molecule, the results for the IC50 in assay [1] and in assay [4] were 513 nM and 741 nM, respectively. Besides, the EC50 in assay [2] and in assay [3] was above 15100 nM each time.
With `N#Cc1ncc(N2C(=O)C3(CCC3)N(c3ccc(O)cc3F)C2=S)cc1C(F)(F)F` [Cpd 47, 5-[8-(2-fluoro-4-hydroxy-phenyl)-5-oxo-7-thioxo-6,8-diazaspiro[3.4]octan-6-yl]-3-(trifluoromethyl)pyridine-2-carbonitrile], the Emax was 99.6% in assay [1] (setting [5]), 0.9% in assay [2], 0.4% in assay [3] and 101% in assay [4] (setting [5]). The IC50 in assay [1] is 195 nM; in assay [4] it was 245 nM. Also, the EC50 in assay [2] (setting [6]) and in assay [3] (setting [8]) was above 15100 nM throughout.
Turning to `Cc1cc(N2C(=O)C3(CCC3)N(c3ccc(OC4CCN(C)CC4)cc3)C2=S)cnc1C#N` [Cpd 4, 3-methyl-5-[8-[4-[(1-methyl-4-piperidyl)oxy]phenyl]-5-oxo-7-thioxo-6,8-diazaspiro[3.4]octan-6-yl]pyridine-2-carbonitrile], the Emax in assay [1] (setting [5]) is 100%; in assay [2] (setting [7]), 0.2%; in assay [3] (setting [7]) it was -0.4%; in assay [4] (setting [5]), 100%. In addition, the IC50 is 269 nM in assay [1] and 1100 nM in assay [4]. Further, the EC50 in assay [2] (setting [6]) and in assay [3] (setting [8]) was above 15100 nM in each case.
As for `Cc1cc(N2C(=O)C3(CCC3)N(c3ccc(-c4ccco4)cc3)C2=S)cnc1C#N` [Cpd 86, 5-[8-[4-(2-furyl)phenyl]-5-oxo-7-thioxo-6,8-diazaspiro[3.4]octan-6-yl]-3-methyl-pyridine-2-carbonitrile], the Emax in assay [1] (setting [5]) is 93.3%; in assay [2] (setting [7]), 0.6%; in assay [3] (setting [7]) it was 1.3%; in assay [4] (setting [5]), 91.7%. The IC50 in assay [1] is 209 nM; in assay [4], 257 nM. Also, the EC50 in assay [2] (setting [6]) and in assay [3] (setting [8]) was above 15100 nM throughout.
For the molecule `Cc1cc(N2C(=O)C3(CCC3)N(c3ccc(-c4cccnc4C)cc3)C2=S)cnc1C#N` [Cpd 119, 3-methyl-5-[8-[4-(2-methyl-3-pyridyl)phenyl]-5-oxo-7-thioxo-6,8-diazaspiro[3.4]octan-6-yl]pyridine-2-carbonitrile], the Emax in assay [1] (setting [5]) was 96%; in assay [2] (setting [7]) it was 2.2%; in assay [3] (setting [7]), 3.9%; in assay [4] (setting [5]), 97.7%. Further, the IC50 in assay [1] is 158 nM; in assay [4], 112 nM. The EC50 in assay [2] (setting [6]) and in assay [3] (setting [8]) was above 15100 nM throughout.
With `N#Cc1ncc(N2C(=O)C3(CCC3)N(c3ccc(OCCN4CCNCC4)c(F)c3)C2=S)cc1C(F)(F)F` [Cpd 105, 5-[8-[3-fluoro-4-(2-piperazin-1-ylethoxy)phenyl]-5-oxo-7-thioxo-6,8-diazaspiro[3.4]octan-6-yl]-3-(trifluoromethyl)pyridine-2-carbonitrile], the Emax stood at 95.3% in assay [1] (setting [5]), 1.2% in assay [2] (setting [7]), 2.3% in assay [3] (setting [7]) and 95.7% in assay [4] (setting [5]). The figures for the IC50 in assay [1] and in assay [4] were 490 nM and 575 nM, respectively. Also, the EC50 in assay [2] (setting [6]) and in assay [3] (setting [8]) was above 15100 nM each time.
Regarding `Cc1ccc(NC(=O)c2ccc(N3C(=S)N(c4cnc(C#N)c(C)c4)C(=O)C34CCC4)cc2F)cn1` [Cpd 75, 4-[6-(6-cyano-5-methyl-3-pyridyl)-5-oxo-7-thioxo-6,8-diazaspiro[3.4]octan-8-yl]-2-fluoro-N-(6-methyl-3-pyridyl)benzamide], the Emax in assay [1] worked out at 100%; in assay [2] it was 0.8%; in assay [3], 0.8%; in assay [4], 101%. The IC50 is 145 nM in assay [1] and 562 nM in assay [4]. Also, the EC50 in assay [2] and in assay [3] was above 15100 nM in each case.
On to `N#Cc1ncc(N2C(=O)C3(CCC3)N(c3ccc(OC4CCOCC4)cc3)C2=S)cc1C(F)(F)F` [Cpd 112, 5-[5-oxo-8-(4-tetrahydropyran-4-yloxyphenyl)-7-thioxo-6,8-diazaspiro[3.4]octan-6-yl]-3-(trifluoromethyl)pyridine-2-carbonitrile], for which the Emax in assay [1] (setting [5]) stood at 97%; in assay [2] (setting [7]), 1.1%; in assay [3] (setting [7]), 2.7%; in assay [4] (setting [5]), 100%. Also, the figures for the IC50 in assay [1] and in assay [4] were 331 nM and 355 nM, respectively. In addition, the EC50 in assay [2] (setting [6]) and in assay [3] (setting [8]) was above 15100 nM in each case.

Source of the values: US20180008587A1, “THIOHYDANTOIN ANDROGEN RECEPTOR ANTAGONISTS FOR THE TREATMENT OF CANCER” (Jaressen Pharmaceutica NV, priority 2016, published 2018).
